According to ChEMBL document CHEMBL1201862, “PubChem BioAssay data set” (2004):
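Test compounds were applied to cells in 96-well plates for 48 hours at 5 doses. GI50 marks 50% less growth.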 Calls of active or inactive are those of the source. Cut-off read from the data, not from the text of the source: active = GI50 up to about 1.1 µM and inactive = higher.

Key:
Test in all cases: NCI anticancer screen, dose series, 48 h
HOP-62 = tested on: HOP-62
MCF7 = tested on: MCF7
U-251 = tested on: U-251
UACC-62 = tested on: UACC-62
SF-295 = tested on: SF-295
MOLT-4 = tested on: MOLT-4
COLO 205 = tested on: COLO 205
SN12C = tested on: SN12C
SNB-75 = tested on: SNB-75
MDA-MB-231 = tested on: MDA-MB-231
PC-3 = tested on: PC-3
UO-31 = tested on: UO-31
HCT-15 = tested on: HCT-15
HCC 2998 = tested on: HCC 2998
Hs-578T = tested on: Hs-578T
RXF 393 = tested on: RXF 393
OVCAR-4 = tested on: OVCAR-4
T47D = tested on: T47D
K562 = tested on: K562
786-0 = tested on: 786-0
MDA-MB-435 = tested on: MDA-MB-435
SNB-19 = tested on: SNB-19
A549 = tested on: A549
HT-29 = tested on: HT-29
NCI-H460 = tested on: NCI-H460
SF-539 = tested on: SF-539
HCT-116 = tested on: HCT-116
M14 = tested on: M14
CAKI-1 = tested on: CAKI-1
CCRF-CEM = tested on: CCRF-CEM
A498 = tested on: A498
EKVX = tested on: EKVX
NCI/ADR-RES = tested on: NCI/ADR-RES
OVCAR-5 = tested on: OVCAR-5
KM12 = tested on: KM12
SR = tested on: SR
OVCAR-3 = tested on: OVCAR-3
NCI-H23 = tested on: NCI-H23
DU-145 = tested on: DU-145
TK-10 = tested on: TK-10
MDA-N = tested on: MDA-N
HOP-92 = tested on: HOP-92
SF-268 = tested on: SF-268
NCI-H226 = tested on: NCI-H226
OVCAR-8 = tested on: OVCAR-8
LOX IMVI = tested on: LOX IMVI
SK-MEL-5 = tested on: SK-MEL-5
UACC-257 = tested on: UACC-257
SK-MEL-2 = tested on: SK-MEL-2
SK-OV-3 = tested on: SK-OV-3
NCI-H522 = tested on: NCI-H522
RPMI-8226 = tested on: RPMI-8226
IGROV-1 = tested on: IGROV-1
SK-MEL-28 = tested on: SK-MEL-28
BT-549 = tested on: BT-549
SW-620 = tested on: SW-620
ACHN = tested on: ACHN
HL-60 = tested on: HL-60

Q: What does the source list for `CC(=O)/C(=C/N1CCNC1=S)C(=O)Nc1ccccc1C`?
A: GI50 (HOP-62): > 100 µM (inactive); GI50 (MCF7): > 100 µM (inactive); GI50 (U-251): > 100 µM (inactive); GI50 (UACC-62): > 100 µM (inactive); GI50 (SF-295): > 100 µM (inactive); GI50 (MOLT-4): > 100 µM (inactive); GI50 (COLO 205): > 100 µM (inactive); GI50 (SN12C): > 100 µM (inactive); GI50 (SNB-75): > 100 µM (inactive); GI50 (MDA-MB-231): > 100 µM (inactive); GI50 (PC-3): > 100 µM (inactive); GI50 (UO-31): > 100 µM (inactive); GI50 (HCT-15): > 100 µM; GI50 (HCC 2998): > 100 µM (inactive); GI50 (Hs-578T): > 100 µM (inactive); GI50 (RXF 393): > 100 µM (inactive); GI50 (OVCAR-4): > 100 µM (inactive); GI50 (T47D): > 100 µM (inactive); GI50 (K562): > 100 µM (inactive); GI50 (786-0): > 100 µM (inactive); GI50 (MDA-MB-435): > 100 µM (inactive); GI50 (SNB-19): > 100 µM (inactive); GI50 (A549): > 100 µM (inactive); GI50 (HT-29): > 100 µM (inactive); GI50 (NCI-H460): > 100 µM (inactive); GI50 (SF-539): > 100 µM (inactive); GI50 (HCT-116): > 100 µM (inactive); GI50 (M14): > 100 µM (inactive); GI50 (CAKI-1): > 100 µM (inactive); GI50 (CCRF-CEM): > 100 µM (inactive); GI50 (A498): > 100 µM (inactive); GI50 (EKVX): > 100 µM (inactive); GI50 (NCI/ADR-RES): > 100 µM (inactive); GI50 (OVCAR-5): > 100 µM (inactive); GI50 (KM12): > 100 µM (inactive); GI50 (SR): 83 µM (inactive); GI50 (OVCAR-3): > 100 µM (inactive); GI50 (NCI-H23): > 100 µM (inactive); GI50 (DU-145): > 100 µM (inactive); GI50 (TK-10): > 100 µM (inactive); GI50 (MDA-N): > 100 µM (inactive); GI50 (HOP-92): > 100 µM (inactive); GI50 (SF-268): > 100 µM (inactive); GI50 (NCI-H226): > 100 µM (inactive); GI50 (OVCAR-8): > 100 µM (inactive); GI50 (LOX IMVI): > 100 µM (inactive); GI50 (SK-MEL-5): > 100 µM (inactive); GI50 (UACC-257): > 100 µM (inactive); GI50 (SK-MEL-2): > 100 µM (inactive); GI50 (SK-OV-3): > 100 µM (inactive); GI50 (NCI-H522): > 100 µM (inactive); GI50 (RPMI-8226): > 100 µM (inactive); GI50 (IGROV-1): > 100 µM (inactive); GI50 (SK-MEL-28): > 100 µM (inactive); GI50 (BT-549): > 100 µM (inactive); GI50 (SW-620): > 100 µM (inactive); GI50 (ACHN): > 100 µM (inactive)

Q: How did the GI50 (HOP-62) turn out when `CC(C)=CCC(O)C1=CC(=O)c2c(O)ccc(O)c2C1=O` (stereo not given) was run?
A: 1.82 µM (inactive)

Q: What about the GI50 (MCF7) of the same molecule?
A: 0.557 µM (active)

Q: And the GI50 (U-251)?
A: 2.1 µM (inactive)

Q: And the GI50 (UACC-62)?
A: 1.58 µM (inactive)

Q: And the GI50 (SF-295)?
A: 2.78 µM (inactive)

Q: What about the GI50 (MOLT-4) of the same molecule?
A: 0.063 µM (active)

Q: What about the GI50 (COLO 205) of the same molecule?
A: 0.171 µM (active)

Q: And the GI50 (SN12C)?
A: 0.664 µM (active)

Q: And the GI50 (SNB-75)?
A: 5.04 µM (inactive)

Q: What about the GI50 (MDA-MB-231) of the same molecule?
A: 1.55 µM (inactive)

Q: What about the GI50 (PC-3) of the same molecule?
A: 2.23 µM (inactive)

Q: And the GI50 (UO-31)?
A: 1.38 µM (inactive)

Q: And the GI50 (HCT-15)?
A: 0.21 µM

Q: What about the GI50 (HCC 2998) of the same molecule?
A: 1.74 µM (inactive)

Q: What about the GI50 (Hs-578T) of the same molecule?
A: 2.9 µM (inactive)

Q: And the GI50 (RXF 393)?
A: 0.745 µM (active)

Q: And the GI50 (OVCAR-4)?
A: 1.76 µM (inactive)

Q: And the GI50 (T47D)?
A: 0.39 µM (active)

Q: What about the GI50 (K562) of the same molecule?
A: 0.191 µM (active)

Q: What about the GI50 (786-0) of the same molecule?
A: 0.494 µM (active)

Q: And the GI50 (MDA-MB-435)?
A: 1.31 µM (inactive)

Q: And the GI50 (SNB-19)?
A: 2.36 µM (inactive)

Q: And the GI50 (A549)?
A: 4.82 µM (inactive)

Q: And the GI50 (HT-29)?
A: 1.97 µM (inactive)

Q: And the GI50 (NCI-H460)?
A: 1.88 µM (inactive)

Q: And the GI50 (SF-539)?
A: 1.61 µM (inactive)

Q: And the GI50 (HCT-116)?
A: 1.25 µM (inactive)

Q: What about the GI50 (M14) of the same molecule?
A: 1.16 µM (inactive)

Q: What about the GI50 (CAKI-1) of the same molecule?
A: 0.407 µM (active)

Q: And the GI50 (HL-60)?
A: 0.0349 µM (active)

Q: What about the GI50 (CCRF-CEM) of the same molecule?
A: 0.075 µM (active)

Q: What about the GI50 (A498) of the same molecule?
A: 1.96 µM (inactive)

Q: And the GI50 (EKVX)?
A: 1.54 µM (inactive)

Q: What about the GI50 (NCI/ADR-RES) of the same molecule?
A: 2.05 µM (inactive)

Q: What about the GI50 (OVCAR-5) of the same molecule?
A: 1.97 µM (inactive)

Q: And the GI50 (KM12)?
A: 4.7 µM (inactive)

Q: And the GI50 (SR)?
A: 0.15 µM (active)

Q: What about the GI50 (OVCAR-3) of the same molecule?
A: 1.14 µM (inactive)

Q: What about the GI50 (NCI-H23) of the same molecule?
A: 1.13 µM (inactive)

Q: What about the GI50 (DU-145) of the same molecule?
A: 1.22 µM (inactive)

Q: What about the GI50 (TK-10) of the same molecule?
A: 1.53 µM (inactive)

Q: And the GI50 (MDA-N)?
A: 0.805 µM (active)

Q: What about the GI50 (HOP-92) of the same molecule?
A: 0.641 µM (active)

Q: What about the GI50 (SF-268) of the same molecule?
A: 2.27 µM (inactive)

Q: What about the GI50 (NCI-H226) of the same molecule?
A: 1.01 µM (active)

Q: What about the GI50 (OVCAR-8) of the same molecule?
A: 1.55 µM (inactive)

Q: And the GI50 (LOX IMVI)?
A: 1.22 µM (inactive)

Q: And the GI50 (SK-MEL-5)?
A: 0.301 µM (active)

Q: And the GI50 (UACC-257)?
A: 1.5 µM (inactive)

Q: And the GI50 (SK-MEL-2)?
A: 1.95 µM (inactive)

Q: And the GI50 (SK-OV-3)?
A: 11.7 µM (inactive)

Q: And the GI50 (NCI-H522)?
A: 0.258 µM (active)

Q: What about the GI50 (RPMI-8226) of the same molecule?
A: 0.23 µM (active)

Q: What about the GI50 (IGROV-1) of the same molecule?
A: 1.64 µM (inactive)

Q: What about the GI50 (SK-MEL-28) of the same molecule?
A: 1.48 µM (inactive)

Q: And the GI50 (BT-549)?
A: 1.58 µM (inactive)

Q: What about the GI50 (SW-620) of the same molecule?
A: 0.933 µM (active)

Q: What about the GI50 (ACHN) of the same molecule?
A: 0.525 µM (active)
